Source: patent US20050070594A1, “Use of angiotensin II receptor antagonists” (Boehringer Ingelheim International GmbH, priority 2003, published 2005)

How the values were obtained:
3T3-L1 adipocytes = experiment: Lipid accumulation and differentiation of 3T3-L1 adipocytes (Oil Red-O staining); format: cell-based, mouse
Text: (§1) 3T3-L1 mouse preadipocytes are cultivated in DMEM (Dulbecco's modified eagle medium) with 10% foetal calf serum (FBS). PC12W cells are cultivated in DMEM with 5% FBS and 10% equine serum. In both cases the media contain 1% penicillin/streptomycin.
(§2) The differentiation of adipocytes is induced 2-3 days after cell confluence by adding a differentiating solution. This contains • 1 μmol/L of dexamethasone, • 0.5 mmol/L of 3-isobutyl-1-methylxanthine, • 1.67 μmol/L of insulin, and • 10% FBS.
(§3) Then the cells are stimulated for another 48 hours before finally being analysed (day 4).
Cells are washed with PBS and fixed with a 3.7% formaldehyde solution for 2 minutes. After fixing, the cells are stained for 1 hour at ambient temperature with a 0.5% stock solution of Oil Red-O in isopropanol diluted 3:2 with water. After washing, the cells are examined under a light microscope.

[1] = molecular target: T1, human PPARgamma-ligand binding domain (LBD) (Homo sapiens, UniProt P37231); experiment: SPA assay: displacement of 3H-labelled rosiglitazone from GST-PPARgamma-LBD; conditions: NSB 217, Bmax 911
T1 sequence (P37231 205-505): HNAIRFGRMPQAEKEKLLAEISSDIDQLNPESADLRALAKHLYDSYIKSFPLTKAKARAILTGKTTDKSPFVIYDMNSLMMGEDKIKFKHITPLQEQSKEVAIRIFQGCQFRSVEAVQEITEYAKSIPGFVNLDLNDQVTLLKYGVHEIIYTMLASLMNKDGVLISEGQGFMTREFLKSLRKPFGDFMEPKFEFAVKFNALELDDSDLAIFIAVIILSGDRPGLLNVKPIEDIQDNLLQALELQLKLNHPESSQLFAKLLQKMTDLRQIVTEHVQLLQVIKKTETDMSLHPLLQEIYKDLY
T1 sequence (P19793 220-461 partner limits assumed): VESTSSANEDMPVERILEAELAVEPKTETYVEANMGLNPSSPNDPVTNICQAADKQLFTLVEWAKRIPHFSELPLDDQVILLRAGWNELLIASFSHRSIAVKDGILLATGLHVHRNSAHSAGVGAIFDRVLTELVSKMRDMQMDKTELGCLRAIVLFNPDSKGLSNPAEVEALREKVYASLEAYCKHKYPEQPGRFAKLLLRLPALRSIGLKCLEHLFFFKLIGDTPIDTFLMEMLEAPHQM
Procedure: Protein containing the human PPARgamma-ligand binding domain (LBD) is prepared as a GST fusion protein in E.coli and purified by affinity chromatography. To do this, a DNA section which codes for the amino acids 205-505 of the human PPARgamma2 transcription factor (cf. Genbank entry U79012) is subcloned via the additionally introduced restriction cutting sites BamH I and Xho I into the expression vector pGEX-4T-1 (Amersham) and the sequence of the section is monitored. […] The bacteria are pelleted after the induction and frozen in batches in PBS, pH 7.4. After opening up in a French Press, the dissolved GST-PPARgamma-LBD-fusion protein is purified using a GSTrap column (Pharmacia). Elution is carried out by the addition of 20 mM reduced glutathione. The GST-PPARgamma-LBD-protein fractions are desalinated using a HiTrap desalting column (Pharmacia) and the protein concentration is determined using a standard assay. Protein containing the human RXRalpha ligand binding domain (LBD) is prepared as a His tag fusion protein in E.coli and purified by affinity chromatography. To do this a DNA section which codes for the amino acids 220-461 of the human RXRalpha transcription factor (cf. Genbank entry NM_002957, nt 729-1457) is subcloned via the additionally introduced restriction cutting sites BamH I and Not I into the expression vector pET28c (Novagen) and the sequence of the section is monitored. […] The bacteria are pelleted after the expression and frozen in batches in PBS, pH 7.4. After opening up in a French Press, the dissolved His-RXRalpha-LBD-fusion protein is purified using a HiTrap chelating column (Pharmacia). Elution is carried out using a 500 mM imidazole step. The His-RXRalpha-LBD protein fractions are desalinated using a HiTrap desalting column (Pharmacia) and the protein concentration is determined using a standard assay. A description of the SPA assay format can be found in Mukheriee R et al., J Steroid Biochem Mol Biol (2002) 81:217-225.

[2] = tested on: Adipose Protein 2 (aP2) expression; experiment: Stimulation of aP2 expression in 3T3-L1 cells (real time PCR); format: cell-based, mouse; conditions: 10 μmol/L
Text: as §1, §2, §3
RNA isolation, reverse transcription and quantification of gene expression are carried out using an ABI 7000 sequence detection system-for real time PCR (described in Janke et al, Diabetes 51:1699-707, 2002). The endogenous control used for the real time PCR consists of the household genes 18S rRNA and hypoxanthine guanine phosphoribosyl transferase (hprt).

PPARgamma = experiment: Transcription reporter assay (PPRE-luciferase) in 3T3-L1 adipocytes; format: cell-based, mouse; conditions: 10 μmol/L, 24 hours
Procedure: 3T3-L1 adipocytes (day 4) or PC12W cells are transfected with Lipofectamine 2000 (Invitrogen) in the presence of 1 μg (for 3T3-L1 cells) or 50 ng (for PC12W cells) of a reporter construct, PPARgamma2 and RXRalpha expression vectors and 10 ng of a Renilla Luciferase Reporter control vector. The reporter construct is a fusion of 3xAcyl-CoA oxidase PPAR Response Element (PPRE) with Tk-luciferase. […] The Luciferase Reporter control vector is the plasmid pRL-CMV (Promega).

SMILES: CCCc1nc2c(C)cc(-c3nc4ccccc4n3C)cc2n1Cc1ccc(-c2ccccc2C(=O)O)cc1 [telmisartan]
- differentiation of 3T3-L1 adipocytes (3T3-L1 adipocytes): promoted
- accumulation of lipids (Oil Red-O staining) (3T3-L1 adipocytes; 10 μmol/L, day 4): increased accumulation of lipids
- SPA signal, bound 3H-rosiglitazone (MW) ([1]; 1.00E−04 M test substance): 545
- SPA signal, bound 3H-rosiglitazone (MW) ([1]; 1.00E−05 M test substance): 703
- SPA signal, bound 3H-rosiglitazone (MW) ([1]; 1.00E−06 M test substance): 818
- SPA signal, bound 3H-rosiglitazone (MW) ([1]; 1.00E−07 M test substance): 837
- SPA signal, bound 3H-rosiglitazone (MW) ([1]; 3.00E−05 M test substance): 691
- SPA signal, bound 3H-rosiglitazone (MW) ([1]; 3.00E−06 M test substance): 818
- SPA signal, bound 3H-rosiglitazone (MW) ([1]; 3.00E−07 M test substance): 802
- stimulation of aP2 expression, factor [2]: 3.1±0.3
- induction of the transcriptional activity of PPARgamma, factor (PPARgamma): 3.4±0.9
